System: male Lister Hooded rats
Assay: Rat Conditioned Emotional Response (CER) Model of Anxiety
Type: in vivo
Conditions: 10.0 mg/kg po, 40 min pre-test, hydrochloride; for Suppression Ratio (± SEM): SR 0 = complete suppression, 0.5 = absence of fear; for Rate of responding per minute ±SEM “Dur” period / Rate of responding per minute ±SEM “Pre” period: collapsed across two test trials
Text: Sixty male Lister Hooded rats with a mean free-feeding weight of 472 g were used. Rats were housed in cages of four and were fed a restricted diet designed to maintain rats at 85% of their free-feeding body weight. A 12:12 light/dark cycle was in effect in the colony room and the rats were trained and tested during the light part of the cycle.
These chambers were housed in outer sound and light attenuating shells equipped with a ventilation fan which also helped to mask external noise. A single operant lever was positioned on the left side of the front panel of the operant chamber, approximately 2 cm above the grid floor. Coulbourn animal test cage grid floor shockers (E13-14) were used to deliver shock (0.4 mA, 0.5 s) to the grid floors (model E-10-10SF). […] A houselight (4.0 mA, 28V) was positioned on the front wall of the chamber, above the food magazine, approximately 1.0 cm below the ceiling.
Once the rats had been placed on a restricted feeding regime, magazine training began. On each of the first four days of training each rat received a 30 minute session of magazine training during which pellets were delivered on a variable interval (VI) 30 s schedule. […] These sessions lasted until either 30 minutes expired or 30 food pellets were delivered. […] On the VI 90 s schedule pellets could be earned by pressing the lever, on average, once every 90 s. The houselight was off throughout all of the training sessions.
CER training sessions were approximately 60 minutes long and usually conducted on 5 days per week. During these sessions, food pellets continued to be available on an VI 90 s schedule as before. However, the rats were now presented with two two-minute long periods of houselight illumination. The first light presentation occurred approximately 20 minutes after the start of the session (range 15-25 minutes) and the second light presentation occurred approximately 20 minutes after the first light presentation (range 15-25 minutes). Light presentations were occasionally followed by a 0.5 second 0.4 mA footshock. In a given session, footshock could follow neither, one, or both of the light presentations. On average rats would receive one shock presentation per session. The rate of lever-pressing during each of the light presentations (the ‘during’ or ‘dur’ period) and the rate of lever-pressing in the two minute interval preceding each light presentation (the ‘pre’ period) was recorded.
Once a reliable SR was observed, occasional test sessions occurred. Test sessions were identical to training session except that footshock was never delivered following the first light presentation. Tests occurred no more frequently than once per week and a baseline training session was always carried out before each test session.
The data were analysed with a mixed within-subject (trials) and between-subjects (drug treatment) analysis of variance (ANOVA). The ANOVA was conducted separately on the pre and during light response rates and on the suppression ratios. Significant interactions were followed by one-way analysis of variance on the data collected for each trial. Significant group effects were analysed using post-hoc Dunnett t-tests.

SMILES: CNC1=Nc2ccc(Cl)cc2C(c2ccccc2)=[N+]([O-])C1.Cl [Chlordiazepoxide, chlordiazepoxide hydrochloride]
- Suppression Ratio (± SEM): 0.37 ± 0.05
- Suppression Ratio (± SEM) (listed as CDP): significant increase in SR
- Rate of responding per minute ±SEM “Dur” period: 13.7 ± 3.1 per minute
- Rate of responding per minute ±SEM “Pre” period: 21.8 ± 2.9 per minute
- Rate of responding per minute ±SEM “Dur” period (listed as CDP): significant increase in dur responding
- Rate of responding per minute ±SEM “Pre” period (listed as chlordiazepoxide): significant increase in pre responding
